Measured values from patent US10125098B2, “Therapeutic compounds and methods of use thereof” (GENENTECH, INC., priority 2014, dated 2018).
Where two headings read alike, the source gives them in different places. Each block holds one compound with its values, some of them ahead of it.

How the values were obtained:
NaV1.5 = molecular target: T1, NaV1.5 (Homo sapiens, UniProt Q14524); experiment: Patch voltage clamp electrophysiology assay (EP), NaV1.5; type: cell-based
T1 construct: permanently transfected with an expression vector containing the full-length cDNA coding for the desired human sodium channel α-subunit; expressed in transfected cells; host or cells: HEK-293
T1 sequence (Q14524 whole entry): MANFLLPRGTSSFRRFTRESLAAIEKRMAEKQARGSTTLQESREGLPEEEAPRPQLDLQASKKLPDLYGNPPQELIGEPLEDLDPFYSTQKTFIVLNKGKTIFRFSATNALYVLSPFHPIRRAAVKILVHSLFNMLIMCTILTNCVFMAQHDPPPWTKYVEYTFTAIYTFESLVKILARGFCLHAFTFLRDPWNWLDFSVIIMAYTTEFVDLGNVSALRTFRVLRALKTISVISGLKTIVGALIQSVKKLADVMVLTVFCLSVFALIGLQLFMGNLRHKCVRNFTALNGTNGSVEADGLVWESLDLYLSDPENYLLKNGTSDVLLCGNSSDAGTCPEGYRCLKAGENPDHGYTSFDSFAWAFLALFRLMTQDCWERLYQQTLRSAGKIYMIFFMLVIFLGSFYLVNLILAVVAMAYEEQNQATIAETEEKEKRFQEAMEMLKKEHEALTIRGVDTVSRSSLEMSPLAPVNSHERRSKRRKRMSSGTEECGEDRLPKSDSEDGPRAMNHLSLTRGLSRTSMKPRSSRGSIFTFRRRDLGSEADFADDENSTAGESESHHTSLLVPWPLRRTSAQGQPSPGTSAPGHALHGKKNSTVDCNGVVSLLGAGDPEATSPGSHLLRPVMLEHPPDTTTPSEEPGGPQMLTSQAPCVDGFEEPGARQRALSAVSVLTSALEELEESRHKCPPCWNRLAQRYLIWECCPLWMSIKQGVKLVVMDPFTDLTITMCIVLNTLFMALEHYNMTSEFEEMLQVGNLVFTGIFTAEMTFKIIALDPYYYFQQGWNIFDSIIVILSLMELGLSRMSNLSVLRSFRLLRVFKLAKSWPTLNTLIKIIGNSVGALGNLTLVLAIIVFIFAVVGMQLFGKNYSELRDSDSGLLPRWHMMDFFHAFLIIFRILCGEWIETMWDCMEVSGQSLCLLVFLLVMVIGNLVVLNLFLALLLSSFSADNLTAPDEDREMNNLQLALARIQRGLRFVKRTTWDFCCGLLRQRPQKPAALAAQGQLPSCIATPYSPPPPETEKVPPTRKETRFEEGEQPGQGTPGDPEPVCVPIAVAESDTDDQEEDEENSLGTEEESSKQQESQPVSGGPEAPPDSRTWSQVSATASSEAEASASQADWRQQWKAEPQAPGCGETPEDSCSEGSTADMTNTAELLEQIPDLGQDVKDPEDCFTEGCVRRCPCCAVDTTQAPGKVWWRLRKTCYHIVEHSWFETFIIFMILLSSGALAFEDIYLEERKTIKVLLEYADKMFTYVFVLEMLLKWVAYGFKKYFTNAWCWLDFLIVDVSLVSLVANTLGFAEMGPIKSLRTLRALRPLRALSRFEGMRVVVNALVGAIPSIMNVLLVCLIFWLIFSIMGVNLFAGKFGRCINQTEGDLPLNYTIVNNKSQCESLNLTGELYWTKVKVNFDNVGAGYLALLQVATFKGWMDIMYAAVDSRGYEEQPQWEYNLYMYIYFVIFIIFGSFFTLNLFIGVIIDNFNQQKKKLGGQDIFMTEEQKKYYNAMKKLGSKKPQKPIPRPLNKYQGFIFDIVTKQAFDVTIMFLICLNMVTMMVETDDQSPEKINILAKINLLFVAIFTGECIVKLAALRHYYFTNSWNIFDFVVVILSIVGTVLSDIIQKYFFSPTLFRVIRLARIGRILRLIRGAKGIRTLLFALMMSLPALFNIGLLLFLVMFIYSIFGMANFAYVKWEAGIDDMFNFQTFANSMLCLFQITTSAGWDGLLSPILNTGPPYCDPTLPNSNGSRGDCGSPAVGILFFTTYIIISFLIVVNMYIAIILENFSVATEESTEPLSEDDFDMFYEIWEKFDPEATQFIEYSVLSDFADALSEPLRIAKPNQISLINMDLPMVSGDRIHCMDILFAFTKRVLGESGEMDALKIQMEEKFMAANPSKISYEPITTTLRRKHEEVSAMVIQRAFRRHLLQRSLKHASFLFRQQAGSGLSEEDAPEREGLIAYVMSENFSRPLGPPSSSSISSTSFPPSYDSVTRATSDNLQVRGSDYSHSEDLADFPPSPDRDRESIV
In short: (§1)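 Percent block is the drop in sodium current after compound wash-on, measured by a test pulse following 20 ms at −150 mV from a −60 mV inactivating holding potential.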

hNav1.7 = molecular target: T2, hNav1.7 (Homo sapiens, UniProt Q15858); experiment: Tritiated compound binding (LBA) to membranes from cells expressing hNav1.7 and the β1 subunit, competitive binding; conditions: competitive binding vs 100 pM [3H]compound, 18 h, room temperature, membranes with hNav1.7 and β1 subunit
T2 construct: expressed in transfected cells
T2 sequence (Q15858 1-1977 isoform Q15858-3): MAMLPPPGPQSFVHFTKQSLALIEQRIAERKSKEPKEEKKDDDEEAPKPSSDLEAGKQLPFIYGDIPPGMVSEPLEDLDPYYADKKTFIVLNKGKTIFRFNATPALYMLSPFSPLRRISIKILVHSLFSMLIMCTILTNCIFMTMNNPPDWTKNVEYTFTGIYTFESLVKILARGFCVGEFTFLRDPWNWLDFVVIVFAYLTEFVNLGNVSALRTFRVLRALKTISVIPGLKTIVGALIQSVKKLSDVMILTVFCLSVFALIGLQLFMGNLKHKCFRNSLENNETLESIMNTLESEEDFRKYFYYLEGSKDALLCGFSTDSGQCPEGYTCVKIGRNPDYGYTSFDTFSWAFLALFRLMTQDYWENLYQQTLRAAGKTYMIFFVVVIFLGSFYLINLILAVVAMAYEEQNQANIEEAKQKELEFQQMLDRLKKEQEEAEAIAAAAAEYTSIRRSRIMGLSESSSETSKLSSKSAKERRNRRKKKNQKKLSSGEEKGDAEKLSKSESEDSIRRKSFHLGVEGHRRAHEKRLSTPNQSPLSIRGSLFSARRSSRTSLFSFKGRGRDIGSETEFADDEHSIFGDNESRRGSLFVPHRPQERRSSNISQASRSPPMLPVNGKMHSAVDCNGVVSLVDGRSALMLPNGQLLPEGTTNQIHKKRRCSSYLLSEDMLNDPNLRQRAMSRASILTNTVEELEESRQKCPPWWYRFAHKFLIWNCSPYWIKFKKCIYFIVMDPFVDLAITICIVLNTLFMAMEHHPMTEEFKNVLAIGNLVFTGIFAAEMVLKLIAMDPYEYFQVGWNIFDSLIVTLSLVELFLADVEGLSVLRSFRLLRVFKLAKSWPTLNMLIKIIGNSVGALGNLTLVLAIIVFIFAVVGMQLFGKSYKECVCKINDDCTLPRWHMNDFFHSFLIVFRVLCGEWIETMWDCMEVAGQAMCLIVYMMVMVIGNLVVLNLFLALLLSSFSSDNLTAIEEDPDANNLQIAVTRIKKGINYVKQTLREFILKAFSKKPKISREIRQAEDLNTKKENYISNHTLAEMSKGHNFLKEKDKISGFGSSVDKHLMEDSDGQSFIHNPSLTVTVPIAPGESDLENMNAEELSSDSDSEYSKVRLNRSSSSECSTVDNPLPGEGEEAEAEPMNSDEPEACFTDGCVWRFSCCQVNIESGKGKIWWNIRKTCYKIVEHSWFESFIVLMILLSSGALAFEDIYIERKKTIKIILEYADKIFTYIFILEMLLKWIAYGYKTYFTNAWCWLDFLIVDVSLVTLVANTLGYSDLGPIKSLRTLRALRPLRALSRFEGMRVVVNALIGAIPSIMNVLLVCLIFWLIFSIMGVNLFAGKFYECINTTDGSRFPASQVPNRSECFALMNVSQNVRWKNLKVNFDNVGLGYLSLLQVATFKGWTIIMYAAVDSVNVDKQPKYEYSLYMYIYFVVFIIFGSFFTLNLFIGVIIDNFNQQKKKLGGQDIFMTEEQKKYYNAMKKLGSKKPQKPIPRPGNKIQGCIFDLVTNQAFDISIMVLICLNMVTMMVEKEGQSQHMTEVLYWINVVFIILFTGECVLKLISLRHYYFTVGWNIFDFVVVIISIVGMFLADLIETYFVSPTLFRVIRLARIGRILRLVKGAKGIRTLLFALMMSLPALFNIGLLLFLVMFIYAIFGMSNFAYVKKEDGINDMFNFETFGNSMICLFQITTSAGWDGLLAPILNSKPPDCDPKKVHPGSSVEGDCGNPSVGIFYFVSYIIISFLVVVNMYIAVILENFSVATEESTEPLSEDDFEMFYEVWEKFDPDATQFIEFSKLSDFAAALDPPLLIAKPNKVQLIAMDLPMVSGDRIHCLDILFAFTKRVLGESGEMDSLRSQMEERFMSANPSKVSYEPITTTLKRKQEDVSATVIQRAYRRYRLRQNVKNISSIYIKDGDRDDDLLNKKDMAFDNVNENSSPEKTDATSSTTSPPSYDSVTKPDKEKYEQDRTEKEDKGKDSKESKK
T2 sequence (Q07699 19-218 partner): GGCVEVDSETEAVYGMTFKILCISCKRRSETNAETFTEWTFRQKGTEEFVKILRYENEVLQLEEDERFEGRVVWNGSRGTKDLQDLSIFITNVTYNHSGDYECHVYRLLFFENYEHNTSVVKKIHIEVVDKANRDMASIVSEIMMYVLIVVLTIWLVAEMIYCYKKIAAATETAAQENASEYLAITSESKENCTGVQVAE
In short: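 Competitive displacement of 100 pM [3H]compound (tritiated methyl analogue of formula (I)) from hNav1.7/β1 membranes, 18 h at room temperature in NaCl/Tris pH 7.4 buffer containing 0.01% BSA. 1 μM unlabeled compound set non-specific binding. Bound label quantified by scintillation after filtration; 4-parameter fit gave IC50.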

human NaV1.7 = molecular target: T3, human NaV1.7 (Homo sapiens, UniProt Q15858); experiment: Patch voltage clamp electrophysiology assay (EP), NaV1.7; type: cell-based; conditions: HEK-293 cells stably expressing NaV1.7 with β1 subunit; whole-cell patch clamp, membrane potential −60 mV (inactivated state)
T3 construct: permanently transfected with an expression vector containing the full-length cDNA coding for the desired human sodium channel α-subunit; expressed in transfected cells; host or cells: HEK-293
T3 sequence (Q15858 1-1977 isoform Q15858-3): as the sequence (Q15858 1-1977 isoform Q15858-3) above
T3 sequence (Q07699 19-218 partner): as the sequence (Q07699 19-218 partner) above
In short: as §1

[1] = HEK-293 cells stably expressing NaV1.5 with β1 subunit, whole-cell patch clamp, membrane potential −60 mV (inactivated state), read-out: Nav1.5
[2] = human, HEK-293 cells stably expressing human NaV1.5 with β1 subunit, pH 7.4, HEK-293 cells stably expressing NaV1.5 with β1 subunit, whole-cell patch clamp, membrane potential −60 mV (inactivated state)

SMILES: O=C(O)[C@@H]1C[C@@H](F)CN1C(=O)c1cc(C2CC2)c(OCC2CCN(Cc3noc(-c4ccccc4Cl)n3)CC2)cc1F [Example 220, (2S, 4R)-1-(4-((1-((5-(2-chlorophenyl)-1,2,4-oxadiazol-3-yl)methyl)piperidin-4-yl)methoxy)-5-cyclopropyl-2-fluorobenzoyl)-4-fluoropyrrolidine-2-carboxylic acid]
IC50 (NaV1.5; [2]): ≥ 30000 nM
IC50 (hNav1.7): 160 nM
IC50 (human NaV1.7): 830 nM

SMILES: O=C(O)[C@@H]1CC2(CC2)CN1C(=O)c1cc(C2CC2)c(OCC2(F)CCN(Cc3cc(C(F)(F)F)ccc3Cl)CC2)cc1F [Example 221, (S)-5-(4-((1-(2-chloro-5-(trifluoromethyl)benzyl)-4-fluoropiperidin-4-yl)methoxy)-5-cyclopropyl-2-fluorobenzoyl)-5-azaspiro[2.4]heptane-6-carboxylic acid]
IC50 (NaV1.5): 16000 nM
IC50 (hNav1.7): 500 nM
IC50 (human NaV1.7): 1100 nM

SMILES: O=C(O)[C@@H]1C[C@@H](F)CN1C(=O)c1cc(C2CC2)c(OCC2CCN(Cc3c(Cl)cccc3Cl)CC2)cc1F [Example 222, (2S,4R)-1-(5-cyclopropyl-4-((1-(2,6-dichlorobenzyl)piperidin-4-yl)methoxy)-2-fluorobenzoyl)-4-fluoropyrrolidine-2-carboxylic acid]
IC50 (NaV1.5; [2]): ≥ 30000 nM
IC50 (hNav1.7): 13 nM
IC50 (human NaV1.7): 210 nM

SMILES: C[C@H]1OCN(C(=O)c2cc(C3CC3)c(OCC3CCN(C(c4cc(Cl)cc(Cl)c4)C(F)(F)F)CC3)cc2F)[C@@H]1C(=O)O (stereo partly drawn) [Example 226, (4S,5R)-3-(5-cyclopropyl-4-((1-(1-(3,5-dichlorophenyl)-2,2,2-trifluoroethyl)-piperidin-4-yl)methoxy)-2-fluorobenzoyl)-5-methyloxazolidine-4-carboxylic acid]
IC50 (NaV1.5; [1]): 6100 nM
IC50 (hNav1.7): 12 nM
IC50 (human NaV1.7): 130 nM

SMILES: C[C@H]1OCN(C(=O)c2cc(C3CC3)c(OCC3CCN(Cc4cc(C(F)(F)F)cc(Cl)c4F)CC3)cc2F)[C@@H]1C(=O)O [Example 227, (4S,5R)-3-(4-((1-(3-chloro-2-fluoro-5-(trifluoromethyl)benzyl)piperidin-4-yl)methoxy)-5-cyclopropyl-2-fluorobenzoyl)-5-methyloxazolidine-4-carboxylic acid]
IC50 (NaV1.5; [1]): 16000 nM
IC50 (hNav1.7): 29 nM
IC50 (human NaV1.7): 65 nM

SMILES: C[C@H]1OCN(C(=O)c2cc(C3CC3)c(OCC3CCN(Cc4cc(C(F)(F)F)ccc4Cl)CC3)cc2F)[C@@H]1C(=O)O [Example 228, (4S,5R)-3-(4-((1-(2-chloro-5-(trifluoromethyl)benzyl)piperidin-4-yl)methoxy)-5-cyclopropyl-2-fluorobenzoyl)-5-methyloxazolidine-4-carboxylic acid]
IC50 (NaV1.5; [1]): 25000 nM
IC50 (hNav1.7): 17 nM
IC50 (human NaV1.7): 87 nM

SMILES: C[C@H]1OCN(C(=O)c2cc(C3CC3)c(OCC3(C)CN([C@H](c4ccccc4)c4cc(Cl)cc(Cl)c4)C3)cc2F)[C@@H]1C(=O)O [Example 229, (4S,5R)-3-(5-cyclopropyl-4-((1-((R)-(3,5-dichlorophenyl)(phenyl)methyl)-3-methylazetidin-3-yl)methoxy)-2-fluorobenzoyl)-5-methyloxazolidine-4-carboxylic acid]
IC50 (NaV1.5; [2]): ≥ 30000 nM
IC50 (hNav1.7): 6.9 nM
IC50 (human NaV1.7): 270 nM

The next lines start with results.

IC50 (hNav1.7): 6.4 nM
IC50 (human NaV1.7): 260 nM
SMILES: C[C@@H]1[C@@H](C(=O)O)N(C(=O)c2cc(C3CC3)c(OCC34CC5CC(CC(C5)C3)C4)cc2F)C[C@@H]1F [Example 219, (2S,3R,4R)-1-(4-(adamantan-1-ylmethoxy)-5-cyclopropyl-2-fluorobenzoyl)-4-fluoro-3-methylpyrrolidine-2-carboxylic acid]
IC50 (NaV1.5; [1]): 12000 nM

IC50 (hNav1.7): 910 nM
IC50 (human NaV1.7): 2900 nM
SMILES: O=C(NC(C(=O)O)C(F)(F)F)c1cc(C2CC2)c(OCC23CC4CC(CC(C4)C2)C3)cc1F (stereo not drawn) [Example 223, 2-(4-(adamantan-1-ylmethoxy)-5-cyclopropyl-2-fluorobenzamido)-3,3,3-trifluoropropanoic acid]
IC50 (NaV1.5; [1]): 3900 nM

IC50 (hNav1.7): 14 nM
IC50 (human NaV1.7): 100 nM
SMILES: C[C@H]1OCN(C(=O)c2cc(C3CC3)c(OCC3CCN(Cc4c(Cl)cccc4Cl)CC3)cc2F)[C@@H]1C(=O)O [Example 224, (4S,5R)-3-(5-cyclopropyl-4-((1-(2,6-dichlorobenzyl)piperidin-4-yl)methoxy)-2-fluorobenzoyl)-5-methyloxazolidine-4-carboxylic acid]
IC50 (NaV1.5; [1]): 22000 nM

IC50 (hNav1.7): 21 nM
IC50 (human NaV1.7): 32 nM
SMILES: C[C@H]1[C@H](O)CN(C(=O)c2cc(C3CC3)c(OCC34CC5CC(CC(C5)C3)C4)cc2F)[C@@H]1C(=O)O [Example 230, (2S, 3R, 4S)-1-(4-(adamantan-1-ylmethoxy)-5-cyclopropyl-2-fluorobenzoyl)-4-hydroxy-3-methylpyrrolidine-2-carboxylic acid]
IC50 (NaV1.5; [1]): 11000 nM

IC50 (hNav1.7): 290 nM
IC50 (human NaV1.7): 360 nM
SMILES: C[C@@H]1[C@H](O)CN(C(=O)c2cc(C3CC3)c(OCC34CC5CC(CC(C5)C3)C4)cc2F)[C@@H]1C(=O)O [Example 231, (2S,3S,4S)-1-(4-(adamantan-1-ylmethoxy)-5-cyclopropyl-2-fluorobenzoyl)-4-hydroxy-3-methylpyrrolidine-2-carboxylic acid]
IC50 (NaV1.5; [1]): 15000 nM
